From ChEMBL document CHEMBL5291721, “A preclinical secondary pharmacology resource illuminates target-adverse drug reaction associations of marketed drugs” (Nat Commun, 2023) come the findings set out here.

Some targets named below: Histamine H3 receptor (Homo sapiens, UniProt Q9Y5N1); D(3) dopamine receptor (Homo sapiens, UniProt P35462); Mu-type opioid receptor (Homo sapiens, UniProt P35372).
In test [1] the target is Sodium-dependent dopamine transporter (Homo sapiens, UniProt Q01959).
The next test addresses T1, Progesterone receptor (Homo sapiens, UniProt P06401).
T1 sequence (P06401 whole entry): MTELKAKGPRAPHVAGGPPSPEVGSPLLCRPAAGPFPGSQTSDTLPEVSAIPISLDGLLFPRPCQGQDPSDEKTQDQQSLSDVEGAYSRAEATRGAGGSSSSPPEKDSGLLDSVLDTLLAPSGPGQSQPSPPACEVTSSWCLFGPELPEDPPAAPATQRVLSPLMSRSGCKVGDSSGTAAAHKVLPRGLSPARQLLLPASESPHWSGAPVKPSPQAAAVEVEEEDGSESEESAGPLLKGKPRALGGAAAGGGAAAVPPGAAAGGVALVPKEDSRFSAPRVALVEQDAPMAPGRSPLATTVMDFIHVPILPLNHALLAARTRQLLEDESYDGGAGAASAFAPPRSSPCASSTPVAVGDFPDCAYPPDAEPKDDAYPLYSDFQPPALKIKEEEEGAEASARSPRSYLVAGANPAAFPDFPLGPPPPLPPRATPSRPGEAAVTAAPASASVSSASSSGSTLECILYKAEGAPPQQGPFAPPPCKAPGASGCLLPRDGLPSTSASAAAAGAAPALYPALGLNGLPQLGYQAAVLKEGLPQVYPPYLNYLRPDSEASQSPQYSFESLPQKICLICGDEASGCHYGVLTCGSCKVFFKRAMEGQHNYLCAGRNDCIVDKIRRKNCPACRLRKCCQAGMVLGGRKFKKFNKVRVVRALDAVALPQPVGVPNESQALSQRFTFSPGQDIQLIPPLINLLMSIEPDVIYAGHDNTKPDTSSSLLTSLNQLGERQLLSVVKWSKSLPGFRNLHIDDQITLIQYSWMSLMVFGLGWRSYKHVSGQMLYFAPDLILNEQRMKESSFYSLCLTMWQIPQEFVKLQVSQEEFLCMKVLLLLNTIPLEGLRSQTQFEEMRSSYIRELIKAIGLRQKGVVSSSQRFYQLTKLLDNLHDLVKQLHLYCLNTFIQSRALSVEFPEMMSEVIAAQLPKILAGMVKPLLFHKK

The target in test [2] is cGMP-inhibited 3',5'-cyclic phosphodiesterase 3A (Homo sapiens, UniProt Q14432). The test is classed as functional.
Test [3] addresses T2, Prostaglandin G/H synthase 1 (Homo sapiens, UniProt P23219). Format: functional.
For test [4], the target named is T3, Amine oxidase [flavin-containing] A (Homo sapiens, UniProt P21397).
T3 sequence (P21397 whole entry): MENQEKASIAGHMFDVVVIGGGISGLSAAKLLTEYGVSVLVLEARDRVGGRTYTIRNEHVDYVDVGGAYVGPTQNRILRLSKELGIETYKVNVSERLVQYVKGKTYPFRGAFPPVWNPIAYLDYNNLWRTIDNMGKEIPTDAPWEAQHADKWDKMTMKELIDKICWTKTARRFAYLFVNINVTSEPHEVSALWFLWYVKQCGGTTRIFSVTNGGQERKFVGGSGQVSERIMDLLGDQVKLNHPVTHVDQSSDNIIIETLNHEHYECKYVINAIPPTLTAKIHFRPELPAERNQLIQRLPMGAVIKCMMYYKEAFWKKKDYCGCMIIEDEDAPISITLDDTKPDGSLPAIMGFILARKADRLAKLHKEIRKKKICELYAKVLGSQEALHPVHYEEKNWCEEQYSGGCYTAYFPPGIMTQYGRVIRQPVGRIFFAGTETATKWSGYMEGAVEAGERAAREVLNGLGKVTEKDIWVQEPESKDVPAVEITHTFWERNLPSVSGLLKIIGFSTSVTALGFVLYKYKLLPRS
Format: functional.

In another test the target is T4, Estrogen receptor (Homo sapiens, UniProt P03372).
T4 sequence (P03372 whole entry): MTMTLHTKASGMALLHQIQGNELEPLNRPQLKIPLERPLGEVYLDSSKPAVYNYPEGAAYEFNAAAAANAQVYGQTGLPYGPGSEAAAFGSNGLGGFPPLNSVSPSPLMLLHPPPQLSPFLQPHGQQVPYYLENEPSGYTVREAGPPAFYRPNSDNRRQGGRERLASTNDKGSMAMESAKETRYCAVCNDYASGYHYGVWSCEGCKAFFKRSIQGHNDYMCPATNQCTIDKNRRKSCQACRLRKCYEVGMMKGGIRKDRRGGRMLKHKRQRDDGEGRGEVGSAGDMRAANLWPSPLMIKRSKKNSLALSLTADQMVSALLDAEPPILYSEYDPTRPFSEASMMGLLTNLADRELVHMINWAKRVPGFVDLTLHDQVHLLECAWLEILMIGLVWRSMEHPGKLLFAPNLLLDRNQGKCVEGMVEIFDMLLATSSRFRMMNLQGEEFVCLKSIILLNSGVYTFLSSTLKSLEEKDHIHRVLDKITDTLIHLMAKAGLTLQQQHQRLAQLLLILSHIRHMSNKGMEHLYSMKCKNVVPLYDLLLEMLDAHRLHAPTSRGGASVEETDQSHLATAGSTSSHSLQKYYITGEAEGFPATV

Test [5] concerns the target T2, Prostaglandin G/H synthase 1. Format: functional. This is another data set of the same source.
Test [6] deals with Voltage-gated inwardly rectifying potassium channel KCNH2 (Homo sapiens, UniProt Q12809). Format: functional. The settings on record: read-out: AC50.
In test [7] the target is Sodium-dependent serotonin transporter (Homo sapiens, UniProt P31645).
Test [8] has as its target Sodium-dependent noradrenaline transporter (Homo sapiens, UniProt P23975).

Each structure is given as a SMILES string.
Further: assay procedure not described here.

T2 sequence (P23219 whole entry): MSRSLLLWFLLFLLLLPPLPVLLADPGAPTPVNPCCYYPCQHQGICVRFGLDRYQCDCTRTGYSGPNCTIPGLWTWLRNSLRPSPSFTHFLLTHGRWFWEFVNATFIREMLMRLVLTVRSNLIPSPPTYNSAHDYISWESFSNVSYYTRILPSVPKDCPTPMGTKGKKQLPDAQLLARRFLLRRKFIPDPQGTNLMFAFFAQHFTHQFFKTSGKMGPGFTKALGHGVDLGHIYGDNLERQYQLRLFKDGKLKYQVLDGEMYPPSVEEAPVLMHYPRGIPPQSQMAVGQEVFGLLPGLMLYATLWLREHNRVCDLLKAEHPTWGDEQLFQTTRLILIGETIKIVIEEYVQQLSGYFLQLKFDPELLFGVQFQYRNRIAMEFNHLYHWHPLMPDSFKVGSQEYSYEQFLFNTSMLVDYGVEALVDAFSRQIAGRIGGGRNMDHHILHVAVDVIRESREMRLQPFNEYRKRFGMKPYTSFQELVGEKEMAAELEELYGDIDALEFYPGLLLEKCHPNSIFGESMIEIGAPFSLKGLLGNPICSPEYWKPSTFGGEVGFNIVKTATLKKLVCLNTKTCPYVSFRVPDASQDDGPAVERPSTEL
Sequence of Sodium-dependent noradrenaline transporter (P23975 whole entry): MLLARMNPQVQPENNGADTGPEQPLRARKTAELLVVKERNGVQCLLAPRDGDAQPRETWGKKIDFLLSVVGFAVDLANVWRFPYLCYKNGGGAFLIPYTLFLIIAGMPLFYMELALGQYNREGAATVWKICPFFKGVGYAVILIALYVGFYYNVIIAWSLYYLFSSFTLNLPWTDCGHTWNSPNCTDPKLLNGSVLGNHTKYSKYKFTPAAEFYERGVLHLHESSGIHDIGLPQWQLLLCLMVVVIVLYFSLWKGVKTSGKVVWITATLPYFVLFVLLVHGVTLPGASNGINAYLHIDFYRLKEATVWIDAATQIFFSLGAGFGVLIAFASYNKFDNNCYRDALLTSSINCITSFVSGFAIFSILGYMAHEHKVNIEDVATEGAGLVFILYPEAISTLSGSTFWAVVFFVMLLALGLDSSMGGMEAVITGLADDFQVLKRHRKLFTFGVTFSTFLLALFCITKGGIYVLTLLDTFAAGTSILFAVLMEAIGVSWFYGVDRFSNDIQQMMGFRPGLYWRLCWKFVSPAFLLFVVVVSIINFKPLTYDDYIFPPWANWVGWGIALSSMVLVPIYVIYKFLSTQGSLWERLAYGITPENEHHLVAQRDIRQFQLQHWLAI
Sequence of Sodium-dependent serotonin transporter (P31645 whole entry): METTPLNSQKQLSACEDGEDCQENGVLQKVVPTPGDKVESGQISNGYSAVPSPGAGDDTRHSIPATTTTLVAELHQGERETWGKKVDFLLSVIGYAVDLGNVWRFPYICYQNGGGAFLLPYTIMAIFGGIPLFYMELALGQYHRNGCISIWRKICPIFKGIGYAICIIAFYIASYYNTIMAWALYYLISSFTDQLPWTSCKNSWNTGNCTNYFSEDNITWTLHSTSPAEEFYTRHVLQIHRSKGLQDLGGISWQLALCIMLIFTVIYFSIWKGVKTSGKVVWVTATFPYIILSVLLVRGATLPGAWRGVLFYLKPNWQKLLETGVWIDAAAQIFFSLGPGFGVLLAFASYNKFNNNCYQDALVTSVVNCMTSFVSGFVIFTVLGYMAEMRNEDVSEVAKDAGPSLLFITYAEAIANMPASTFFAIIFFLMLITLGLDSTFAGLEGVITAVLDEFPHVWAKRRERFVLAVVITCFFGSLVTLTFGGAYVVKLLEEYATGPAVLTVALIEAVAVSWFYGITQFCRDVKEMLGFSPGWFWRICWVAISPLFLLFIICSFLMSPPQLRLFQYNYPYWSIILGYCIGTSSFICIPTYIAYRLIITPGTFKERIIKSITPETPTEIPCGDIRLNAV
Sequence of Mu-type opioid receptor (P35372 whole entry): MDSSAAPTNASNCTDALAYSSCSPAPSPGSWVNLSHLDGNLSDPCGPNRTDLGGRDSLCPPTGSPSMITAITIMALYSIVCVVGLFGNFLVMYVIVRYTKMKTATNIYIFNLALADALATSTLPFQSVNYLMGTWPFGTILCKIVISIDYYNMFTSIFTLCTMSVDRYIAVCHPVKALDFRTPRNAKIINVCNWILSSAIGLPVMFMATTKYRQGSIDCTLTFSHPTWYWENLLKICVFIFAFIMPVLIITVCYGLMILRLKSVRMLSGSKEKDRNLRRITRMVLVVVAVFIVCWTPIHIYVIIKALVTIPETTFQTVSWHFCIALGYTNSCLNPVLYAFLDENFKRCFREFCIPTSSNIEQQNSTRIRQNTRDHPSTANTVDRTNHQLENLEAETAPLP
Sequence of D(3) dopamine receptor (P35462 whole entry): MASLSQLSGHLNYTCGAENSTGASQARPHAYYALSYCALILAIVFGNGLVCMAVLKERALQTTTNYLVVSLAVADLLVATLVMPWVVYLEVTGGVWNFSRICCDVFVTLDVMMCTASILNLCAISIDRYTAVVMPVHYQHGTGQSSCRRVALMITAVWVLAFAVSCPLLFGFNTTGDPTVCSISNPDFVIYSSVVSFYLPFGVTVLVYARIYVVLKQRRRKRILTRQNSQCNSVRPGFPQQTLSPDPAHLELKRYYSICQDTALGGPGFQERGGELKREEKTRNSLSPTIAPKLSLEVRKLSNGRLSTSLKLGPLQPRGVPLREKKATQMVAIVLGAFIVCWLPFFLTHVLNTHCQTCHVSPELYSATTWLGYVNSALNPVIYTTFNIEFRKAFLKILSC
Sequence of Histamine H3 receptor (Q9Y5N1 whole entry): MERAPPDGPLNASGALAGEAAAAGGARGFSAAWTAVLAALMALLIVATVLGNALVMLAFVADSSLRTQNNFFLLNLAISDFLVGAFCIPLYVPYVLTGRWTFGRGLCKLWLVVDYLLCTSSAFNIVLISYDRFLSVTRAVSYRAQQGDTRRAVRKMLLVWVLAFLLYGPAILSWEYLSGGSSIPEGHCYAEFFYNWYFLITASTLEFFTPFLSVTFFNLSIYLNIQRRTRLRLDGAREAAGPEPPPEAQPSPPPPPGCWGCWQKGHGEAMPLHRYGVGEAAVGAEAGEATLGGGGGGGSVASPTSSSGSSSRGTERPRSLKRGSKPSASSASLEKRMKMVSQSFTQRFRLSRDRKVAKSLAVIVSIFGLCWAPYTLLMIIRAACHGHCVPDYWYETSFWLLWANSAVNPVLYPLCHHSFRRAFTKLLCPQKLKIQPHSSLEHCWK
Sequence of cGMP-inhibited 3',5'-cyclic phosphodiesterase 3A (Q14432 whole entry): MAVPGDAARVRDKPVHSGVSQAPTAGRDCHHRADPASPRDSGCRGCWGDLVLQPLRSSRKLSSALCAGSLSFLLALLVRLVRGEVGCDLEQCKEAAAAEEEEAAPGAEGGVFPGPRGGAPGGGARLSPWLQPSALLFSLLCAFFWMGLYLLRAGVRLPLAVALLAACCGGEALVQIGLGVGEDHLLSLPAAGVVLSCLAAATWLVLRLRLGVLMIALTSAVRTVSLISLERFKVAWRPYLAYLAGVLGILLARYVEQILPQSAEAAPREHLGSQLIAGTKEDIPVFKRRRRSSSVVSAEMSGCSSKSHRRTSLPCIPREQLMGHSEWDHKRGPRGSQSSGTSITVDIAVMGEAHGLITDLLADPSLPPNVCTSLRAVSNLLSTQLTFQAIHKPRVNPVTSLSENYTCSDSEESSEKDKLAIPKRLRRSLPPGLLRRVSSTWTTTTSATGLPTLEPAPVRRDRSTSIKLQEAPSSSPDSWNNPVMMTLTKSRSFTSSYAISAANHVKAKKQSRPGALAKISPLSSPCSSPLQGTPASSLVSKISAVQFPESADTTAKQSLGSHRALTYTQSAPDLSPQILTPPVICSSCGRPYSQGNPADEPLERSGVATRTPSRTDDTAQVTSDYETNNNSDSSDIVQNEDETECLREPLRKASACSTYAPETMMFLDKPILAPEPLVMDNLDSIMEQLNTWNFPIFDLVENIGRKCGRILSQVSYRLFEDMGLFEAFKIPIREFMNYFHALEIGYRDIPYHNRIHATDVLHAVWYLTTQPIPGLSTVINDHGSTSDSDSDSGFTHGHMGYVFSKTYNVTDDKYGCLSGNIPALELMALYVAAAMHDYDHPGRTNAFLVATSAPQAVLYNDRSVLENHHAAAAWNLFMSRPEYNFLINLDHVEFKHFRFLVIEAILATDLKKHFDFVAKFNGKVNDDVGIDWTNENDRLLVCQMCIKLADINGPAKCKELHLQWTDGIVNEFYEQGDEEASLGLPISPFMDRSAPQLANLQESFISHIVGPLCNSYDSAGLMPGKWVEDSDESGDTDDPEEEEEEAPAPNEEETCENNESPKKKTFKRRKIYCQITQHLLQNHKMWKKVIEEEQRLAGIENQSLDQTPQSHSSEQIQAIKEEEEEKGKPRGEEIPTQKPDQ
Sequence of Sodium-dependent dopamine transporter (Q01959 whole entry): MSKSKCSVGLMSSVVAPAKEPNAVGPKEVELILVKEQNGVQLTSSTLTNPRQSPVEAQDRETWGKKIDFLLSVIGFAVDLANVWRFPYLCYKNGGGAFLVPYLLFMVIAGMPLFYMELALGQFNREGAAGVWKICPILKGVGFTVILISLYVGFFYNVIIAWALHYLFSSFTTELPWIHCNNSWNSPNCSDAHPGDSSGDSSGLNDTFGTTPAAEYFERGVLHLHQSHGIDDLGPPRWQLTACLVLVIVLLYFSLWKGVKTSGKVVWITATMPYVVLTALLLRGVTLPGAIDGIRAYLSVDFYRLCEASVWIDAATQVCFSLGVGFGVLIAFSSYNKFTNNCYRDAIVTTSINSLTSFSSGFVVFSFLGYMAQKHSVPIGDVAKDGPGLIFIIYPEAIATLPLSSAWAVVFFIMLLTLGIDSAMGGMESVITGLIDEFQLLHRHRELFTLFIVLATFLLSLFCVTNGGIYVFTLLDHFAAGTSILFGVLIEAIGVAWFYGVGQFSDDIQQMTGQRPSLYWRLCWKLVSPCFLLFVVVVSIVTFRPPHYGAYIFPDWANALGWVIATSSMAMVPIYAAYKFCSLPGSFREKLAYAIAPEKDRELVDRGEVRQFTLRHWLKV

Take `Nc1ncnc(Nc2ccc(Cl)cc2)n1` [CHLORAZANIL]: the AC50 (in [1]; at Progesterone receptor; in [2]; in test [3]; in test [4]; on Estrogen receptor) was over 30 µM in each case. Also, the half-maximal activity concentration (AC50) (in test [5]; on Histamine H3 receptor; in test [6]; at D(3) dopamine receptor; on Mu-type opioid receptor; in [7]) was over 30 µM each time. For the same compound, the AC50 (as a rule, the midpoint of the concentration-response curve, whichever way the signal moves) in test [8] turned out to be 5.4 µM.
For the compound `CCC[C@@H]1C[C@@H](C(=O)N[C@@H]([C@H]2O[C@H](SC)[C@H](OP(=O)(O)O)[C@@H](O)[C@H]2O)[C@H](C)Cl)N(C)C1` [CLINDAMYCIN PHOSPHATE], the half-maximal activity concentration (AC50) (in test [1]; at Progesterone receptor; in test [2]; in test [3]; in test [4]; at Estrogen receptor) was over 30 µM in each case. Besides, the AC50 (in test [5]; at Histamine H3 receptor; in test [6]; at D(3) dopamine receptor; at Mu-type opioid receptor; in test [7]) was over 30 µM each time. For the same compound, in [8], the AC50 is over 30 µM.
For `C[C@@H](O)[C@H]1C(=O)N2C(C(=O)O)=C([C@H]3CCCO3)S[C@H]12` [FAROPENEM], the AC50 was over 30 µM in test [1]; over 30 µM at Progesterone receptor; over 30 µM in test [2]; 11.4 µM in test [3]; over 30 µM in test [4]; over 30 µM on Estrogen receptor. Moreover, the AC50 in test [5] was 14.7 µM; on Histamine H3 receptor, over 30 µM; in test [6], over 30 µM; at D(3) dopamine receptor, over 30 µM; at Mu-type opioid receptor, over 30 µM; in test [7], over 30 µM. The AC50 in test [8] is over 30 µM.
Take `CCOC(=O)c1ccc(OC(=O)CCCCCNC(=N)N)cc1` [GABEXATE]: the half-maximal activity concentration (AC50) in [1] was 14.8 µM; at Progesterone receptor, over 30 µM; in test [2], over 30 µM; in test [3], over 30 µM; in [4] it was over 30 µM; on Estrogen receptor, over 30 µM. The concentration at half-maximal activity (AC50) was over 30 µM in test [5]; over 30 µM at Histamine H3 receptor; 25 µM in test [6]; over 30 µM at D(3) dopamine receptor; over 30 µM at Mu-type opioid receptor; over 30 µM in test [7]. Also, the AC50 in test [8] amounted to 9.03 µM.
For `COCCOc1cnc(NS(=O)(=O)c2ccccc2)nc1` [GLYMIDINE], the AC50 (in test [1]; at Progesterone receptor; in test [2]; in [3]; in [4]; on Estrogen receptor) was over 30 µM throughout. Also, the concentration at half-maximal activity (AC50) (in [5]; at Histamine H3 receptor; in test [6]; at D(3) dopamine receptor; on Mu-type opioid receptor; in [7]) was over 30 µM throughout. Moreover, the AC50 in test [8] was over 30 µM.
On to `CCC(=O)O[C@]1(C(=O)COC(C)=O)CC[C@H]2[C@@H]3CCC4=CC(=O)CC[C@]4(C)[C@H]3[C@@H](O)C[C@@]21C` [HYDROCORTISONE ACEPONATE], for which the concentration at half-maximal activity (AC50) in test [1] was over 30 µM; at Progesterone receptor, 0.326 µM; in test [2], over 30 µM; in test [3] it was over 30 µM; in test [4], over 30 µM; at Estrogen receptor, over 30 µM. Besides, the half-maximal activity concentration (AC50) (in test [5]; at Histamine H3 receptor; in test [6]; on D(3) dopamine receptor; at Mu-type opioid receptor; in test [7]) was over 30 µM in each case. The same compound registered a half-maximal activity concentration (AC50) in [8] of over 30 µM.
Turning to `O=[N+]([O-])O[C@H]1CO[C@H]2[C@@H]1OC[C@H]2O[N+](=O)[O-]` [ISOSORBIDE DINITRATE], the concentration at half-maximal activity (AC50) (in [1]; at Progesterone receptor; in test [2]; in [3]; in [4]; at Estrogen receptor) was over 30 µM each time. The concentration at half-maximal activity (AC50) (in test [5]; at Histamine H3 receptor; in test [6]; on D(3) dopamine receptor; at Mu-type opioid receptor; in test [7]) was over 30 µM in each case. In test [8], this compound showed a half-maximal activity concentration (AC50) of over 30 µM.
With `NC(=O)NCCC[C@H](N)C(=O)O` [L-CITRULLINE], the AC50 (in test [1]; on Progesterone receptor; in [2]; in test [3]; in [4]; on Estrogen receptor) was over 30 µM in each case. Moreover, the concentration at half-maximal activity (AC50) (in test [5]; at Histamine H3 receptor; in test [6]; on D(3) dopamine receptor; on Mu-type opioid receptor; in test [7]) was over 30 µM throughout. In [8], this compound showed an AC50 of over 30 µM.
Take `CC(=O)O[C@H]1C[C@H](O[C@H]2[C@@H](O)C[C@H](O[C@H]3[C@@H](O)C[C@H](O[C@H]4CC[C@@]5(C)[C@H](CC[C@@H]6[C@@H]5C[C@@H](O)[C@]5(C)[C@@H](C7=CC(=O)OC7)CC[C@]65O)C4)O[C@@H]3C)O[C@@H]2C)O[C@H](C)[C@H]1O[C@@H]1O[C@H](CO)[C@@H](O)[C@H](O)[C@H]1O` [LANATOSIDE C]: the concentration at half-maximal activity (AC50) (in [1]; on Progesterone receptor; in [2]; in [3]; in test [4]; on Estrogen receptor) was over 30 µM throughout. Besides, the AC50 (in test [5]; at Histamine H3 receptor; in test [6]; on D(3) dopamine receptor; on Mu-type opioid receptor; in test [7]) was over 30 µM throughout. This compound also came in with a half-maximal activity concentration (AC50) in test [8] of over 30 µM.
As to `Nc1nc(N)nc(Nc2ccc([As]3SCC(CO)S3)cc2)n1` (stereo not given) [MELARSOPROL], the AC50 in test [1] is 29.2 µM; on Progesterone receptor it was over 30 µM; in test [2] it was over 30 µM; in test [3], over 30 µM; in test [4], over 30 µM; at Estrogen receptor, over 30 µM. Besides, the AC50 was 23.5 µM in test [5]; over 30 µM at Histamine H3 receptor; over 10 µM in [6]; over 30 µM at D(3) dopamine receptor; over 30 µM on Mu-type opioid receptor; over 30 µM in test [7]. The compound further yielded a half-maximal activity concentration (AC50) in test [8] of over 30 µM.
